Reference: the Biogen ADME set (Fang et al. 2023)
In brackets after ≈: the same amount, converted by molar mass.

Conditions: for aqueous solubility: pH 6.8

| Structure (SMILES) | MDR1-MDCK efflux ratio | intrinsic clearance, human liver microsomes [mL/min/kg] | intrinsic clearance, rat liver microsomes [mL/min/kg] | aqueous solubility [µg/mL] | fraction unbound, human plasma | fraction unbound, rat plasma |
| --- | --- | --- | --- | --- | --- | --- |
| Oc1cc(F)ccc1-c1nc(-c2ccncc2)no1 | – | 42.9 | 334 | – | – | – |
| COc1c(C)cnc(CN(C)S(N)(=O)=O)c1C | 1.91 | ≤ 4.74 | 82 | 30.6 (≈ 118 µM) | – | – |
| Cc1cc(NC(=O)c2c(F)cccc2Cl)no1 | – | ≤ 4.74 | 26 | – | – | – |
| Cc1cc2cc(C(=O)N(Cc3ccc4c(c3)OCO4)C3CC3)ccc2o1 | 0.28 | 127 | 1730 | 11.7 (≈ 33.6 µM) | – | – |
| O=C(CC[C@@H]1CCCN2CCCC[C@H]12)NCc1ncc(Cl)cn1 | 33.8 | ≤ 4.74 | 37.6 | – | – | – |
| O=C(O)c1cc2cc(O)c(O)cc2c(C(=O)c2ccc(O)c(O)c2)n1 | – | 35.5 | 110 | 57.9 (≈ 170 µM) | – | – |
| C1CCN(c2nc(NC3CC3)nc(N3CCCCC3)n2)CC1 | 0.301 | – | – | 0.62 (≈ 2.05 µM) | – | – |
| COc1cc(Br)c2c(=O)[nH]c(C)nc2c1 | 0.691 | 13.9 | 148 | – | – | – |
| CCN1C(=O)C(=O)N(Cc2sc3ccccc3c2Cl)C1=O | – | – | – | 0.3 (≈ 0.929 µM) | – | – |
| Cc1ncsc1-c1cncc(CC2CCCN(C)C2)n1 (stereo not given) | 0.97 | 32 | 108 | – | – | – |
| Cc1c(Cl)ccc2cc3n(c12)[C@@H](C)CNC3=O | 0.513 | 10.8 | 70.4 | 33.3 (≈ 134 µM) | 0.0213 | 0.0497 |
| COc1ncccc1C(=O)Nc1nc(C)nn1C | 0.585 | ≤ 4.74 | ≤ 10.7 | – | – | – |
| CNc1ccc(/C=C/c2ccc(OCCOCCOCCF)nc2)cc1 | 0.533 | 253 | 564 | – | – | – |
| COc1cccc(OC)c1-c1ccc(OCCN2CCCC2)cc1 | 1.4 | ≤ 4.74 | 2290 | – | – | – |
| COc1ccc2c(c1)CN(c1nc(C)cc(C)n1)CC2 | – | 129 | 484 | 10.1 (≈ 37.5 µM) | – | – |
| Cc1cccc(O[C@H]2CN(Cc3ccc(OCCCO)cc3)C[C@@H]2O)c1 | 2.24 | 71 | 702 | 62 (≈ 173 µM) | – | – |

Other lines, results leading:

| MDR1-MDCK efflux ratio | intrinsic clearance, human liver microsomes [mL/min/kg] | intrinsic clearance, rat liver microsomes [mL/min/kg] | aqueous solubility [µg/mL] | fraction unbound, human plasma | fraction unbound, rat plasma | Structure (SMILES) |
| --- | --- | --- | --- | --- | --- | --- |
| 0.463 | 121 | 2180 | – | – | – | O=c1c2sccc2nc2n1CCN(Cc1cc(F)ccc1F)CC2 |
| 1.66 | 5.49 | 30.7 | 151 (≈ 500 µM) | – | – | CN(C)[C@@H]1CN(C(=O)CCn2cnc3ccccc32)C[C@H]1O |
| 0.725 | 32.6 | 625 | 28.3 (≈ 83.5 µM) | – | – | CCc1ccc(-c2nccn2CC(=O)Nc2ccc(C)cc2F)nc1 |
| 0.926 | 460 | 2020 | 37.1 (≈ 112 µM) | – | – | CC(C(=O)Nc1ccccc1)N1CCCN(c2nccs2)CC1 (stereo not given) |
| – | 88.3 | 65.1 | – | – | – | CC(C)c1cc(C(=O)Nc2ncccc2Cl)no1 |
| 28 | ≤ 4.74 | ≤ 10.7 | 29.2 (≈ 72.6 µM) | – | – | COc1cc(OC)c(OC)cc1CNc1ccc(N2CCOCC2)c(C(=O)O)c1 |
| 0.976 | – | – | 42 (≈ 131 µM) | – | – | O=C(/C=C/N1C[C@H]2C[C@@H]1CN2c1ccccn1)c1ccccc1O |
| – | 1120 | 4670 | 8.5 (≈ 22.3 µM) | – | – | CSc1ccccc1NC(=O)CN1CCCC(c2nc3ccccc3o2)C1 (stereo not given) |
